Measured values published in US8076487B2, “Pyridone derivative and herbicide” (Kumiai Chemical Industry Co., Ltd., priority 2006, dated 2011).

Tests used:
Assay type in all cases: in vivo
[1] = system: slender amaranth (Amaranthus viridis L.); assay: Test Example 2: herbicidal effect by soil application to upland field; conditions: soil surface spray, upland field soil, 1,000 g active ingredient per hectare, 21st day after application
How it was run: (§1)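 Greenhouse pot assay with field soil. Freshly sown seeds were covered with soil, then the surface was sprayed with diluted wettable powder: 1,000 g a.i./ha, 1,000 L/ha. Herbicidal effect scored at day 21 by standard criteria.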

[2] = system: barnyardgrass (Echinochloa crus-galli (L.) P. Beauv. var. crus-galli); assay: as above; conditions: soil surface spray, upland field soil, 1,000 g active ingredient per hectare, 21st day after application
How it was run: as §1

[3] = system: green foxtail (Setaria viridis (L.) P. Beauv.); assay: as above; conditions: soil surface spray, upland field soil, 1,000 g active ingredient per hectare, 21st day after application
How it was run: as §1

[4] = system: velvetleaf (Abutilon theophrasti medicus); assay: as above; conditions: soil surface spray, upland field soil, 1,000 g active ingredient per hectare, 21st day after application
How it was run: as §1

[5] = system: early watergrass (Echinochloa oryzicola Vasing); assay: Test Example 1: herbicidal effect by soil application to paddy field; conditions: paddy field soil application; active ingredient 1,000 g per 1 hectare; wettable powder added dropwise to water surface the day after sowing; examined on the 21st day after application
How it was run: (§2)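 Under greenhouse conditions, seeds sown on puddled paddy soil in 100 cm2 pots under 3 cm of standing water received the test compound; injury was assessed with a standard scoring scheme three weeks (day 21) after treatment.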

[6] = system: heartshape false pickerelweed (Monochoria vaginalis (Burm.f.) C.Presl); assay: as above; conditions: paddy field soil application; active ingredient 1,000 g per 1 hectare; wettable powder added dropwise to water surface the day after sowing; examined on the 21st day after application
How it was run: as §2

[7] = system: Japanese bulrush (Scirpus juncoides Roxb.); assay: as above; conditions: paddy field soil application; active ingredient 1,000 g per 1 hectare; wettable powder added dropwise to water surface the day after sowing; examined on the 21st day after application
How it was run: as §2

[8] = system: slender amaranth (Amaranthus viridis L.); assay: Test Example 3: herbicidal effect by application to upland field (foliage treatment); conditions: foliage treatment, 1,000 g active ingredient per 1 hectare, 14th day after application, greenhouse
How it was run: (§3)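 Foliar spray on two-week-old greenhouse weeds in field soil: wettable powder formulation diluted in water, applied at 1,000 L/ha to give 1,000 g a.i./ha. Damage rated by a fixed scoring standard on day 14 after application.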

[9] = system: barnyardgrass (Echinochloa crus-galli (L.) P. Beauv. var. crus-galli); assay: as above; conditions: foliage treatment, 1,000 g active ingredient per 1 hectare, 14th day after application, greenhouse
How it was run: as §3

[10] = system: green foxtail (Setaria viridis (L.) P. Beauv.); assay: as above; conditions: foliage treatment, 1,000 g active ingredient per 1 hectare, 14th day after application, greenhouse
How it was run: as §3

[11] = system: velvetleaf (Abutilon theophrasti medicus); assay: as above; conditions: foliage treatment, 1,000 g active ingredient per 1 hectare, 14th day after application, greenhouse
How it was run: as §3

Structure (SMILES) | herbicidal effect (index), Slender Amaranth [1] | herbicidal effect (index), Barnyardgrass [2] | herbicidal effect (index), Green Foxtail [3] | herbicidal effect (index), Velvetleaf [4] | herbicidal effect, Echinochloa oryzicola Vasing [5] | herbicidal effect, Monochoria vaginalis (Burm. f.) C. Presl [6] | herbicidal effect, Scirpus juncoides Roxb. [7] | herbicidal effect, Slender Amaranth [8] | herbicidal effect, Barnyardgrass [9] | herbicidal effect, Green Foxtail [10] | herbicidal effect, Velvetleaf [11]
COC(C)Cn1c(C(F)(F)F)ccc(C(=O)C2=C(O)C3CCC(C3)C2=O)c1=O (stereo not shown) [III-24] | 5 (90% or more of herbicidal effect and crop phytotoxicity) | 5 (90% or more of herbicidal effect and crop phytotoxicity) | 5 (90% or more of herbicidal effect and crop phytotoxicity) | 5 (90% or more of herbicidal effect and crop phytotoxicity) | 5 (90% or more of herbicidal effect and crop phytotoxicity) | 5 (90% or more of herbicidal effect and crop phytotoxicity) | 5 (90% or more of herbicidal effect and crop phytotoxicity) | 5 (90% or more of herbicidal effect and crop phytotoxicity) | 5 (90% or more of herbicidal effect and crop phytotoxicity) | 5 (90% or more of herbicidal effect and crop phytotoxicity) | 5 (90% or more of herbicidal effect and crop phytotoxicity)
COC(Cn1c(C(F)(F)F)ccc(C(=O)C2=C(O)C3CCC(C3)C2=O)c1=O)OC (stereo not shown) [III-25] | 5 (90% or more of herbicidal effect and crop phytotoxicity) | 5 (90% or more of herbicidal effect and crop phytotoxicity) | 5 (90% or more of herbicidal effect and crop phytotoxicity) | 5 (90% or more of herbicidal effect and crop phytotoxicity) | 5 (90% or more of herbicidal effect and crop phytotoxicity) | 5 (90% or more of herbicidal effect and crop phytotoxicity) | 5 (90% or more of herbicidal effect and crop phytotoxicity) | 5 (90% or more of herbicidal effect and crop phytotoxicity) | 5 (90% or more of herbicidal effect and crop phytotoxicity) | 5 (90% or more of herbicidal effect and crop phytotoxicity) | 5 (90% or more of herbicidal effect and crop phytotoxicity)
CSCCn1c(C(F)(F)F)ccc(C(=O)C2=C(O)C3CCC(C3)C2=O)c1=O (stereo not shown) [III-28] | 5 (90% or more of herbicidal effect and crop phytotoxicity) | 5 (90% or more of herbicidal effect and crop phytotoxicity) | 5 (90% or more of herbicidal effect and crop phytotoxicity) | 5 (90% or more of herbicidal effect and crop phytotoxicity) | 5 (90% or more of herbicidal effect and crop phytotoxicity) | 5 (90% or more of herbicidal effect and crop phytotoxicity) | 5 (90% or more of herbicidal effect and crop phytotoxicity) | 5 (90% or more of herbicidal effect and crop phytotoxicity) | 5 (90% or more of herbicidal effect and crop phytotoxicity) | 5 (90% or more of herbicidal effect and crop phytotoxicity) | 5 (90% or more of herbicidal effect and crop phytotoxicity)
C[S+]([O-])CCn1c(C(F)(F)F)ccc(C(=O)C2=C(O)C3CCC(C3)C2=O)c1=O (stereo not shown) [III-29] | 5 (90% or more of herbicidal effect and crop phytotoxicity) | 5 (90% or more of herbicidal effect and crop phytotoxicity) | 5 (90% or more of herbicidal effect and crop phytotoxicity) | 5 (90% or more of herbicidal effect and crop phytotoxicity) | 5 (90% or more of herbicidal effect and crop phytotoxicity) | 5 (90% or more of herbicidal effect and crop phytotoxicity) | 5 (90% or more of herbicidal effect and crop phytotoxicity) | 5 (90% or more of herbicidal effect and crop phytotoxicity) | 5 (90% or more of herbicidal effect and crop phytotoxicity) | 5 (90% or more of herbicidal effect and crop phytotoxicity) | 5 (90% or more of herbicidal effect and crop phytotoxicity)
C[S+]([O-])CCCn1c(C(F)(F)F)ccc(C(=O)C2=C(O)C3CCC(C3)C2=O)c1=O (stereo not shown) [III-32] | 5 (90% or more of herbicidal effect and crop phytotoxicity) | 5 (90% or more of herbicidal effect and crop phytotoxicity) | 5 (90% or more of herbicidal effect and crop phytotoxicity) | 5 (90% or more of herbicidal effect and crop phytotoxicity) | 5 (90% or more of herbicidal effect and crop phytotoxicity) | 5 (90% or more of herbicidal effect and crop phytotoxicity) | 5 (90% or more of herbicidal effect and crop phytotoxicity) | 5 (90% or more of herbicidal effect and crop phytotoxicity) | 5 (90% or more of herbicidal effect and crop phytotoxicity) | 5 (90% or more of herbicidal effect and crop phytotoxicity) | 5 (90% or more of herbicidal effect and crop phytotoxicity)
CS(=O)(=O)CCCn1c(C(F)(F)F)ccc(C(=O)C2=C(O)C3CCC(C3)C2=O)c1=O (stereo not shown) [III-33] | 5 (90% or more of herbicidal effect and crop phytotoxicity) | 4 (70 to less than 90% of herbicidal effect and crop phytotoxicity) | 5 (90% or more of herbicidal effect and crop phytotoxicity) | 5 (90% or more of herbicidal effect and crop phytotoxicity) | 5 (90% or more of herbicidal effect and crop phytotoxicity) | 5 (90% or more of herbicidal effect and crop phytotoxicity) | 5 (90% or more of herbicidal effect and crop phytotoxicity) | 5 (90% or more of herbicidal effect and crop phytotoxicity) | 5 (90% or more of herbicidal effect and crop phytotoxicity) | 5 (90% or more of herbicidal effect and crop phytotoxicity) | 5 (90% or more of herbicidal effect and crop phytotoxicity)
O=C(C1=C(O)C2CCC(C2)C1=O)c1ccc(C(F)(F)F)n(-c2ccccc2)c1=O (stereo not shown) [III-34] | 5 (90% or more of herbicidal effect and crop phytotoxicity) | 5 (90% or more of herbicidal effect and crop phytotoxicity) | 5 (90% or more of herbicidal effect and crop phytotoxicity) | 5 (90% or more of herbicidal effect and crop phytotoxicity) | 5 (90% or more of herbicidal effect and crop phytotoxicity) | 5 (90% or more of herbicidal effect and crop phytotoxicity) | 5 (90% or more of herbicidal effect and crop phytotoxicity) | 5 (90% or more of herbicidal effect and crop phytotoxicity) | 5 (90% or more of herbicidal effect and crop phytotoxicity) | 5 (90% or more of herbicidal effect and crop phytotoxicity) | 5 (90% or more of herbicidal effect and crop phytotoxicity)
Cc1ccc(-n2c(C(F)(F)F)ccc(C(=O)C3=C(O)C4CCC(C4)C3=O)c2=O)cc1 (stereo not shown) [III-35] | 5 (90% or more of herbicidal effect and crop phytotoxicity) | 5 (90% or more of herbicidal effect and crop phytotoxicity) | 5 (90% or more of herbicidal effect and crop phytotoxicity) | 5 (90% or more of herbicidal effect and crop phytotoxicity) | 5 (90% or more of herbicidal effect and crop phytotoxicity) | 5 (90% or more of herbicidal effect and crop phytotoxicity) | 5 (90% or more of herbicidal effect and crop phytotoxicity) | 5 (90% or more of herbicidal effect and crop phytotoxicity) | 5 (90% or more of herbicidal effect and crop phytotoxicity) | 5 (90% or more of herbicidal effect and crop phytotoxicity) | 5 (90% or more of herbicidal effect and crop phytotoxicity)
